According to ChEMBL document CHEMBL3804767, “Discovery and Preclinical Evaluation of BMS-955829, a Potent Positive Allosteric Modulator of mGluR5” (ACS Med Chem Lett, 2016):
Values belong to the compound of their own block, whether it stands above or below them. Activity calls are given as the source filed them. No cut-off for these calls is given here.

Tests used:
Mus musculus [1] = test: Neurotoxicity in C57/BL6 mouse assessed as induction of convulsion at 30 mg/kg, ip; type: toxicity, organism-based; settings: in vivo
[2] = Protein binding in plasma (unknown origin); type: ADME, cell-free; settings: read-out: PPB (converted)
Mus musculus [3] = test: Ex vivo receptor occupancy of mGlu5 receptor in C57/BL6 mouse at 10 to 30 mg/kg, ip relative to control; type: functional
[4] = target: Metabotropic glutamate receptor 1 (Homo sapiens) (UniProt Q13255); test: Positive allosteric modulation of mGlu1 receptor (unknown origin)
Chain of Metabotropic glutamate receptor 1 (Homo sapiens) (Q13255 19-1194 limits assumed): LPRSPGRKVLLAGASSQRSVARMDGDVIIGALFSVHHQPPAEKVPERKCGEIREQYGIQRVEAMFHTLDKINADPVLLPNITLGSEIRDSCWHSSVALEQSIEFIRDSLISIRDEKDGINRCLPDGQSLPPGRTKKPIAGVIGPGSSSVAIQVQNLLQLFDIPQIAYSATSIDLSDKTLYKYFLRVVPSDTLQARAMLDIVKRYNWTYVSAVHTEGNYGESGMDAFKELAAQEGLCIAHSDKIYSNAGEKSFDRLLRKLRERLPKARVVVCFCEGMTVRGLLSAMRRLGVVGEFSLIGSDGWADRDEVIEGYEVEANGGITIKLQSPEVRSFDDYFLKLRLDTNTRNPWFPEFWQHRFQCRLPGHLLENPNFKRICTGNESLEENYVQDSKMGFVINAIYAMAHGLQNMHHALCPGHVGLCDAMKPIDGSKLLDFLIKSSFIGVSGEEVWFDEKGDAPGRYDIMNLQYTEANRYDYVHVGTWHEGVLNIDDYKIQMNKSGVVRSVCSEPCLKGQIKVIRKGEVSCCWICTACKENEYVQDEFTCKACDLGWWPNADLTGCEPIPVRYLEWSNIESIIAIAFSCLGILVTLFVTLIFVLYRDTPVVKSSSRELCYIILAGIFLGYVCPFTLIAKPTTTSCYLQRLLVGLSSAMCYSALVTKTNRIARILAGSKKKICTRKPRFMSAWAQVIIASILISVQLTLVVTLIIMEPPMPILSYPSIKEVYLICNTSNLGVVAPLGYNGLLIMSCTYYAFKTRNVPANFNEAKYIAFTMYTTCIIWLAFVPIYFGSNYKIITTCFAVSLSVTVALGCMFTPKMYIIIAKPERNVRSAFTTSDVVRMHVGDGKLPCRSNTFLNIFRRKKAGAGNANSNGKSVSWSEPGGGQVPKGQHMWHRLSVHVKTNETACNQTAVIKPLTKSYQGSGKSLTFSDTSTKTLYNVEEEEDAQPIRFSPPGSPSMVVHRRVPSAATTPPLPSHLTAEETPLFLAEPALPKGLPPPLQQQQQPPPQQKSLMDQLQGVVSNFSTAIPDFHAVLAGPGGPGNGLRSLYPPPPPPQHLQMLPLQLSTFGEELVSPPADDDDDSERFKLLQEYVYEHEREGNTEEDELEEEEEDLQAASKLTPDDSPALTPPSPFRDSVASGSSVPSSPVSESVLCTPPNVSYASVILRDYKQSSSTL

[5] = target: Metabotropic glutamate receptor 1 (Homo sapiens) (UniProt Q13255); test: Negative allosteric modulation of mGlu1 receptor (unknown origin)
[6] = target: Metabotropic glutamate receptor 1 (Homo sapiens) (UniProt Q13255); test: Agonist activity at mGlu1 receptor (unknown origin)
[7] = target: Metabotropic glutamate receptor 2 (Homo sapiens) (UniProt Q14416); test: Positive allosteric modulation of mGlu2 receptor (unknown origin)
Chain of Metabotropic glutamate receptor 2 (Homo sapiens) (Q14416 19-872 limits assumed): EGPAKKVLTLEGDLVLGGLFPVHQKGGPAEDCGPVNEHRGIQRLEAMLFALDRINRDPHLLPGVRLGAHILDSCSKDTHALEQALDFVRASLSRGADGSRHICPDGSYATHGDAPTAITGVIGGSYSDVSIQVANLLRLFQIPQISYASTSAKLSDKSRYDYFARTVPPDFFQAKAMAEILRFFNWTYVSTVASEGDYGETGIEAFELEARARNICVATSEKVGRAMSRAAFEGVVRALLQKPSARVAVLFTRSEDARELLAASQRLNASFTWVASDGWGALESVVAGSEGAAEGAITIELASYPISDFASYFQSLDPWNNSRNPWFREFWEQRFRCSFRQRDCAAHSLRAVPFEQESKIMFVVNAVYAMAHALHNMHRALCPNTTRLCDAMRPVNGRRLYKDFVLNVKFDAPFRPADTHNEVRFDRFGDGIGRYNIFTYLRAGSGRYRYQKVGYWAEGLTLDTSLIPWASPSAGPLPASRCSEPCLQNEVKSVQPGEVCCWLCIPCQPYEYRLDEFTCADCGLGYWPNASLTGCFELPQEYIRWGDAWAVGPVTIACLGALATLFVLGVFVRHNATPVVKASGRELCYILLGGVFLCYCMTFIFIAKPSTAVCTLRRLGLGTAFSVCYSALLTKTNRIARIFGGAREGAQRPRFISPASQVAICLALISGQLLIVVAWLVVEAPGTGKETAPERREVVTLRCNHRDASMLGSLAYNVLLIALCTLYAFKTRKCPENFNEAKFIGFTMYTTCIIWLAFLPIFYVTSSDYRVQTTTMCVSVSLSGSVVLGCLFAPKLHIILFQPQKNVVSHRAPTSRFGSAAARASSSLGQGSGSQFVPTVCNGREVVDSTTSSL

[8] = target: Metabotropic glutamate receptor 2 (Homo sapiens) (UniProt Q14416); test: Negative allosteric modulation of mGlu2 receptor (unknown origin)
[9] = target: Metabotropic glutamate receptor 2 (Homo sapiens) (UniProt Q14416); test: Agonist activity at mGlu2 receptor (unknown origin)
[10] = target: Metabotropic glutamate receptor 3 (Homo sapiens) (UniProt Q14832); test: Positive allosteric modulation of mGlu3 receptor (unknown origin)
[11] = target: Metabotropic glutamate receptor 3 (Homo sapiens) (UniProt Q14832); test: Negative allosteric modulation of mGlu3 receptor (unknown origin)
[12] = target: Metabotropic glutamate receptor 3 (Homo sapiens) (UniProt Q14832); test: Agonist activity at mGlu3 receptor (unknown origin)
[13] = target: Metabotropic glutamate receptor 4 (Homo sapiens) (UniProt Q14833); test: Positive allosteric modulation of mGlu4 receptor (unknown origin)
Chain of Metabotropic glutamate receptor 4 (Homo sapiens) (Q14833 whole entry): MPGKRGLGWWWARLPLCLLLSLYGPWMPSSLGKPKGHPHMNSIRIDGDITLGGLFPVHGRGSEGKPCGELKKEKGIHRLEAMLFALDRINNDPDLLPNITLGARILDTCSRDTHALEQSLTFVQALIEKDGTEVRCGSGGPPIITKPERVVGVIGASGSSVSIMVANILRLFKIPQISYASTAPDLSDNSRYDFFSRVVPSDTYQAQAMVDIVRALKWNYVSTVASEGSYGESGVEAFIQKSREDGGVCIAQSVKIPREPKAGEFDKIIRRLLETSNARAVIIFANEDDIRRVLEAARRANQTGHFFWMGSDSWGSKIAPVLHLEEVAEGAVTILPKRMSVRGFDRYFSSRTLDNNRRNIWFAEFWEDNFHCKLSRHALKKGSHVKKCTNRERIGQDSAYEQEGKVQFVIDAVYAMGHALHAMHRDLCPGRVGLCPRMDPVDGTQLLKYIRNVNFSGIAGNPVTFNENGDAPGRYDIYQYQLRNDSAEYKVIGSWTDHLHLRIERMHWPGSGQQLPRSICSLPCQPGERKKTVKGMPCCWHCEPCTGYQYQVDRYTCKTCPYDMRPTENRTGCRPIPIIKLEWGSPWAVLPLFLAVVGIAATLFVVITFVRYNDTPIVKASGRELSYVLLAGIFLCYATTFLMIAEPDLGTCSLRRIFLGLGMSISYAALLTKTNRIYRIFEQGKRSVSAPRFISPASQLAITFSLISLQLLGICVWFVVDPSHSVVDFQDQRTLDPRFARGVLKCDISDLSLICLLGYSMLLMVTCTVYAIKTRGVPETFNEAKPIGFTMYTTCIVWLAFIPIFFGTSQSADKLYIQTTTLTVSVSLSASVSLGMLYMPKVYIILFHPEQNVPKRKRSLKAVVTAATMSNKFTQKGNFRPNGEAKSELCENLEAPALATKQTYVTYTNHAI

[14] = target: Metabotropic glutamate receptor 4 (Homo sapiens) (UniProt Q14833); test: Negative allosteric modulation of mGlu4 receptor (unknown origin)
[15] = target: Metabotropic glutamate receptor 4 (Homo sapiens) (UniProt Q14833); test: Agonist activity at mGlu4 receptor (unknown origin)
[16] = target: Metabotropic glutamate receptor 6 (Homo sapiens) (UniProt O15303); test: Positive allosteric modulation of mGlu6 receptor (unknown origin)
Chain of Metabotropic glutamate receptor 6 (Homo sapiens) (O15303 whole entry): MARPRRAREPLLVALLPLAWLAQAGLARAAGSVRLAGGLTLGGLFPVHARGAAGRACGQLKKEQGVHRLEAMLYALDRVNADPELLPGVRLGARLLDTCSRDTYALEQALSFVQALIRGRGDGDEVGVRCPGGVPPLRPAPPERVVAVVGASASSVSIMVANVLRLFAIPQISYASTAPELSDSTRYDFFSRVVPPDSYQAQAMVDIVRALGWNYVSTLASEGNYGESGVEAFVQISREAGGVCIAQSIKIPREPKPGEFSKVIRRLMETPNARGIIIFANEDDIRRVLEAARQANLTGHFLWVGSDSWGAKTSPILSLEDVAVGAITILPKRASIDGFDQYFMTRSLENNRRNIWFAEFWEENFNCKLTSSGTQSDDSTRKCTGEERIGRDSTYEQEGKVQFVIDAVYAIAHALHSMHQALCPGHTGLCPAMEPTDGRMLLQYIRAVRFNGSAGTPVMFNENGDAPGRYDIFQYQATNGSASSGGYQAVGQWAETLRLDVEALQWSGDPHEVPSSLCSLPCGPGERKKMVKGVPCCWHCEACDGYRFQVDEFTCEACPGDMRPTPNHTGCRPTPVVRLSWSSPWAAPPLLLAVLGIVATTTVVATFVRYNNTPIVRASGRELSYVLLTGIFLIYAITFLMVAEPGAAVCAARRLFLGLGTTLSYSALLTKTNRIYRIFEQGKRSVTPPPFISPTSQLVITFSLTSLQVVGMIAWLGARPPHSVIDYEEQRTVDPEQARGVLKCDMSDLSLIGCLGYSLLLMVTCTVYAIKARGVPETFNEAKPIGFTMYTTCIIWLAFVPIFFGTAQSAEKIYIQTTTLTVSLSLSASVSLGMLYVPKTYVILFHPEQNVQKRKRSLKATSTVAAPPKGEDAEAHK

[17] = target: Metabotropic glutamate receptor 6 (Homo sapiens) (UniProt O15303); test: Negative allosteric modulation of mGlu6 receptor (unknown origin)
[18] = target: Metabotropic glutamate receptor 6 (Homo sapiens) (UniProt O15303); test: Agonist activity at mGlu6 receptor (unknown origin)
[19] = target: Metabotropic glutamate receptor 7 (Homo sapiens) (UniProt Q14831); test: Positive allosteric modulation of mGlu7 receptor (unknown origin)
[20] = target: Metabotropic glutamate receptor 7 (Homo sapiens) (UniProt Q14831); test: Negative allosteric modulation of mGlu7 receptor (unknown origin)
[21] = target: Metabotropic glutamate receptor 7 (Homo sapiens) (UniProt Q14831); test: Agonist activity at mGlu7 receptor (unknown origin)
[22] = target: Metabotropic glutamate receptor 8 (Homo sapiens) (UniProt O00222); test: Positive allosteric modulation of mGlu8 receptor (unknown origin)
[23] = target: Metabotropic glutamate receptor 8 (Homo sapiens) (UniProt O00222); test: Negative allosteric modulation of mGlu8 receptor (unknown origin)
[24] = target: Metabotropic glutamate receptor 8 (Homo sapiens) (UniProt O00222); test: Agonist activity at mGlu8 receptor (unknown origin)
Mus musculus [25] = test: Cognitive enhancement effect in mouse assessed as reduction in time spent with familiar object in retention session at 0.3 to 3 mg/kg, sc treated for 60 mins prior to acquisition session measured after 24 hrs for 10 mins by novel object recognition assay; type: functional; settings: read-out: MED
Plasma [26] = test: Total plasma concentration in mouse at 0.3 mg/kg, sc; type: ADME, organism-based; settings: in vivo
Brain [27] = test: Total drug level in mouse brain at 0.3 mg/kg, sc; type: ADME, organism-based; settings: in vivo, read-out: Drug uptake
Rattus norvegicus [28] = test: Reversal of NMDA antagonist MK-801-induced deficits in set shift performance in Sprague-Dawley rat assessed as reduction in number of trial required to achieve 8 consecutive correct selection at 0.1 to 3 mg/kg, sc pretreated for 25 mins followed by MK-801 injection measured after 35 mins by wisconsin card sorting test; type: functional; settings: read-out: MED
Mus musculus [29] = test: Receptor occupancy of mGlu5 receptor in mouse at 0.3 mg/kg, sc relative to control; type: functional
Plasma [30] = test: Total plasma concentration in Sprague-Dawley rat at 0.1 mg/kg, sc; type: ADME, organism-based; settings: in vivo
Brain [31] = test: Total drug level in Sprague-Dawley rat brain at 0.1 mg/kg, sc; type: ADME, organism-based; settings: in vivo, read-out: Drug uptake
Rattus norvegicus [32] = test: Receptor occupancy of mGlu5 receptor in Sprague-Dawley rat at 0.1 mg/kg, sc relative to control; type: functional
[33] = Inhibition of human recombinant CYP450; type: ADME
[34] = target: Voltage-gated inwardly rectifying potassium channel KCNH2 (Homo sapiens, UniProt Q12809); test: Inhibition of human ERG by patch clamp method
Homo sapiens = species on record: Homo sapiens; test: Inhibition of sodium channel (unknown origin) at 10 uM by patch clamp method relative to control
[35] = target: T1, Progesterone receptor (Homo sapiens) (UniProt P06401); test: Antagonist activity at progesterone receptor (unknown origin)
T1 sequence (whole entry): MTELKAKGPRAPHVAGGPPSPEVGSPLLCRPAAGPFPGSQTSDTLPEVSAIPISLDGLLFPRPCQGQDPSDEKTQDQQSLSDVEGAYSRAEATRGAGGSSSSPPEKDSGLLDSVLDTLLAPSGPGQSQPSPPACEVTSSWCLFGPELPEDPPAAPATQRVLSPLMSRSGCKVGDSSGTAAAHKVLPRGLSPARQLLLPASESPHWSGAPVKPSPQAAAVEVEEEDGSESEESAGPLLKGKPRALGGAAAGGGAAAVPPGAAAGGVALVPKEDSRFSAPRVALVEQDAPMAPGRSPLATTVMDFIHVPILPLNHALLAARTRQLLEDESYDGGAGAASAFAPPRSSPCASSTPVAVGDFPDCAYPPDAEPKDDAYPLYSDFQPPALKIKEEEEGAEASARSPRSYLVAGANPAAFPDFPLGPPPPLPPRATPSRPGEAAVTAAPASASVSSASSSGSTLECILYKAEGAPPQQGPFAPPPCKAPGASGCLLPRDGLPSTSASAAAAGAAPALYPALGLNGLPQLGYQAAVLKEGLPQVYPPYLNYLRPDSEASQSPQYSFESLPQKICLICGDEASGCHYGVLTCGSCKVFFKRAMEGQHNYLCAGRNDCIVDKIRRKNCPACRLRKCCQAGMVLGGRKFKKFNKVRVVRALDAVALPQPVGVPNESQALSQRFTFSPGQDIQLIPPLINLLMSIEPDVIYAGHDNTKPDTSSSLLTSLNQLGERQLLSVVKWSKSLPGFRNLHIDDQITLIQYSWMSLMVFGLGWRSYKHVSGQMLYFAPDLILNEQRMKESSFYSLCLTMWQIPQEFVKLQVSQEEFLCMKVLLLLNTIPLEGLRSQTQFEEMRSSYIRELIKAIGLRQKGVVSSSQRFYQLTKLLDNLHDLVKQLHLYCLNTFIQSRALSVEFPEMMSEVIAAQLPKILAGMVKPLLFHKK

[36] = target: T1, Progesterone receptor (Homo sapiens); test: Agonist activity at progesterone receptor (unknown origin)
Progesterone receptor = target: T2, Progesterone receptor (Homo sapiens, UniProt P06401); test: Inhibition of progesterone receptor (unknown origin)
T2 sequence (P06401 whole entry): T1 sequence (whole entry)

Salmonella typhimurium [37] = test: Mutagenicity in Salmonella typhimurium by Ames test in presence of s9 liver fraction; type: toxicity, organism-based; settings: salmonella enterica subsp. enterica serovar typhimurium
Salmonella typhimurium [38] = test: Mutagenicity in Salmonella typhimurium by Ames test; type: toxicity, organism-based; settings: salmonella enterica subsp. enterica serovar typhimurium
[39] = Oral bioavailability in rat at 1 mg/kg; type: ADME, organism-based; settings: in vivo
[40] = Oral bioavailability in dog at 1 mg/kg; type: ADME, organism-based, Canis lupus familiaris; settings: in vivo
[41] = Oral bioavailability in cynomolgus monkey at 1 mg/kg; type: ADME, organism-based, Macaca fascicularis; settings: in vivo
[42] = Clearance in rat at 1 mg/kg, iv; type: ADME, organism-based; settings: in vivo
[43] = Volume of distribution at steady state in rat at 1 mg/kg, iv; type: ADME, organism-based; settings: in vivo, read-out: Vdss
[44] = Ratio of drug level in brain to plasma in rat at 1 mg/kg, iv; type: ADME, organism-based; settings: read-out: BPR
Rattus norvegicus [45] = test: Neurotoxicity in rat assessed as neuronal necrosis in brain hippocampal slice at 100 mg/kg/day, po for 8 days by haematoxylin and eosin staining based assay; type: toxicity, organism-based; settings: in vivo, 192 h
Rattus norvegicus [46] = test: Neurotoxicity in rat assessed as neuronal necrosis in brain auditory complex at 100 mg/kg/day, po for 8 days by haematoxylin and eosin staining based assay; type: toxicity, organism-based; settings: in vivo, 192 h
[47] = Cmax in rat at 100 mg/kg, po measured on day1; type: ADME, organism-based; design: dose 100 mg/kg, route oral; settings: in vivo
[48] = AUC (0 to 24 hrs) in rat at 100 mg/kg, po measured on day1; type: ADME, organism-based; design: time < 24 hr, dose 100 mg/kg, route oral; settings: in vivo
Rattus norvegicus [49] = test: Toxicity in rat administered as repeated dosage for 2 weeks; type: organism-based; settings: in vivo, 336 h
Canis familiaris = test: Toxicity in dog administered as repeated dosage for 5 days; type: organism-based, Canis lupus familiaris; settings: in vivo, 120 h
Mus musculus [50] = test: Neurotoxicity in C57/BL6 mouse assessed as induction of convulsion at 10 mg/kg, ip; type: toxicity, organism-based; settings: in vivo
[51] = target: T3, Metabotropic glutamate receptor 5 (Homo sapiens, UniProt P41594)
T3 sequence (P41594 whole entry): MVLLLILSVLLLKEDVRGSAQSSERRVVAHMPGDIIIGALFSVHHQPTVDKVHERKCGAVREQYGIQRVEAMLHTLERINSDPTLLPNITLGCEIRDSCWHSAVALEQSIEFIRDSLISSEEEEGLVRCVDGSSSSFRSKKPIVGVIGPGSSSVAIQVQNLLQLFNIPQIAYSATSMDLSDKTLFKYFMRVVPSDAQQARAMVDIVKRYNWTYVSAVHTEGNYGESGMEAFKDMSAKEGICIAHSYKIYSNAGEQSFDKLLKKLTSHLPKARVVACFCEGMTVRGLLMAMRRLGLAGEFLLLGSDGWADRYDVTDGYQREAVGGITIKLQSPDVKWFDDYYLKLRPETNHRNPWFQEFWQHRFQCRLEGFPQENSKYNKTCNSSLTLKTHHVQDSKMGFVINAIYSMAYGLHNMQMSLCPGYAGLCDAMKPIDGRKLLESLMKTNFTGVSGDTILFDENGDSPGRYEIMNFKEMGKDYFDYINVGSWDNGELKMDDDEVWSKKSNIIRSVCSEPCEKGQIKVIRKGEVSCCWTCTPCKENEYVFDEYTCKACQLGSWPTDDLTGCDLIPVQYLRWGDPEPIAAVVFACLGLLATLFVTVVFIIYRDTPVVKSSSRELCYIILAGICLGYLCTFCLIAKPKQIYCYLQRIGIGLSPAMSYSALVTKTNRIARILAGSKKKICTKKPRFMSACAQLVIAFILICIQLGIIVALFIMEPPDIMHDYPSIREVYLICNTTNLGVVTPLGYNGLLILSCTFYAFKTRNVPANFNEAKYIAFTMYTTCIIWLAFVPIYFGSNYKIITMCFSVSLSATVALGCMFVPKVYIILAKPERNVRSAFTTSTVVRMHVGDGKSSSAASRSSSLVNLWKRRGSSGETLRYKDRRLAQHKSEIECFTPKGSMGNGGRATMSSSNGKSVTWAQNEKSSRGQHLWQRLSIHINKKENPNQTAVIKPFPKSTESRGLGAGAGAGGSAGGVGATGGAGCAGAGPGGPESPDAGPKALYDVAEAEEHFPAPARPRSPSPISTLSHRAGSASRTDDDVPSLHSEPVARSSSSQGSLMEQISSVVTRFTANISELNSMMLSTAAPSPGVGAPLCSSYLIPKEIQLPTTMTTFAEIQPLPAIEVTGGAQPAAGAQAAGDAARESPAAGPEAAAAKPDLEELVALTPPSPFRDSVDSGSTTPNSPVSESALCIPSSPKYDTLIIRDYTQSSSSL
Description: Positive allosteric modulation of human mGlu5A receptor expressed in HEK293 cells coexpressing rat glutamate-aspartate transporter assessed as potentiation of L-glutamate-induced Ca2+ signal incubated for 60 mins by calcium 4 dye based FLIPR assay

[52] = target: T3, Metabotropic glutamate receptor 5; remark: listed apart in the source
Description: Displacement of [3H]MPEPgamma in mGlu5 receptor (unknown origin) incubated for 60 mins by liquid scintillation counting method

[53] = target: T3, Metabotropic glutamate receptor 5; remark: listed apart in the source
Description: Agonist activity at human mGlu5A receptor expressed in HEK293 cells coexpressing rat glutamate-aspartate transporter assessed as induction of Ca2+ release by calcium 4 dye based FLIPR assay

Mus musculus [54] = test: Neurotoxicity in C57/BL6 mouse assessed as induction of convulsion at 3 mg/kg, ip; type: toxicity, organism-based; settings: in vivo
Mus musculus [55] = test: Toxicity in C57/BL6 mouse assessed as death at 3 mg/kg, ip; type: organism-based; settings: in vivo

- fraction unbound [2]: 0.007
- Activity [4]: > 10 µM
- Activity [5]: > 10 µM
- Activity [6]: > 10 µM
- Activity [7]: > 10 µM
- Activity [8]: > 10 µM
- Activity [9]: > 10 µM
- Activity [10]: > 10 µM
- Activity [11]: > 10 µM
- Activity [12]: > 10 µM
- Activity [13]: > 10 µM
- Activity [14]: > 10 µM
- Activity [15]: > 10 µM
- Activity [16]: > 10 µM
- Activity [17]: > 10 µM
- Activity [18]: > 10 µM
- Activity [19]: > 10 µM
- Activity [20]: > 10 µM
- Activity [21]: > 10 µM
- Activity [22]: > 10 µM
- Activity [23]: > 10 µM
- Activity [24]: > 10 µM
- concentration (Plasma [26]): 116 nM
- concentration (Brain [27]): 178 nM
- concentration (Plasma [30]): 34 nM
- concentration (Brain [31]): 34 nM
- IC50 [33]: ≥ 1300 nM
- inhibition (Homo sapiens): 40%
- inhibition [35]: inactive
- Activity [36]: inactive
- IC50 (Progesterone receptor): 2300 nM
- bioavailability [39]: 100%
- bioavailability [40]: 68%
- bioavailability [41]: 50%
- clearance [42]: 11 mL/min/kg
- Vd [43]: 1.8 L/kg
- Kp [44]: 1
- Cmax [47]: 41000 nM
- AUC(0-t) at 24 h [48]: 751 µM·h
Structure (SMILES): O=C1N[C@H](c2cncc(C#Cc3ccccc3)c2)[C@@H](c2cc(F)ccc2F)O1
- Activity (Mus musculus [1]): Non-toxic
- Occ (Mus musculus [3]): 94%
- minimal effective dose (Mus musculus [25]): 0.3 mg/kg
- minimal effective dose (Rattus norvegicus [28]): 0.1 mg/kg
- Occ (Mus musculus [29]): 18%
- Occ (Rattus norvegicus [32]): 19%
- IC50 [34]: 3600 nM
- Activity (Salmonella typhimurium [37]): Non-toxic
- Activity (Salmonella typhimurium [38]): Non-toxic
- Activity (Rattus norvegicus [45]): Non-toxic
- Activity (Rattus norvegicus [46]): Non-toxic
- Activity (Rattus norvegicus [49]): Non-toxic
- Activity (Canis familiaris): Non-toxic

- fraction unbound [2]: 0.003
- EC50 [51]: 29 nM
- Ki [52]: 13 nM
- EC50 [53]: > 30000 nM
Structure (SMILES): COc1cccc([C@H]2OC(=O)N[C@@H]2c2cccc(C#Cc3ccccc3)c2)c1
- Activity (Mus musculus [50]): Non-toxic

Structure (SMILES): O=C1N[C@H](c2cncc(C#Cc3ccccc3)c2)[C@@H](c2cccc(F)c2)O1
- Activity (Mus musculus [54]): Toxic
- Activity (Mus musculus [55]): Toxic
- fraction unbound [2]: 0.004
